In patent publication US10959998B2, “Pharmaceutical use and pharmaceutical composition of pyrroloquinoline quinine, its derivatives and/or its salts” (priority 2015, dated 2021):

Key:
[1] = test system: ectopic endometrial stromal cells; test: Cell cycle by propidium iodide flow cytometry; assay type: cell-based, human; settings: 24 h, p<0.01
Experimental: (§1) Endometrial tissues were surgically isolated from patients with chocolate cyst of ovary, washed 2 to 3 times with PBS supplemented with antibiotics in ultra-clean cabinet, and cut into tiny pieces (about 1 mm^3 in size) with aseptic scissors. The tissues were digested with 1 mg/ml collagenase type I for 30 to 90 min at 37° C., and continually digested with Dnase I (final concentration of 15 U/ml, 2% Dnase I) for another 30 min. The digested tissues were filtered thorough 60-mesh stainless steel filter cell strainer to remove the undigested cell tissues, and were further filtered with 200- or 400-mesh strainer. The filtered solution was centrifuged at 1000 rpm for 5 min. After removing the supernatants, the cells were washed once with culture medium compounded by DMEM/F12 (1:1 v/v) and 10% fetal bovine serum, re-suspended in the culture medium, and seeded in 6-well tissue culture plate or T25 tissue culture flasks with an appropriate density. After 24 hours incubation, the culture medium was changed to remove the non-adherent blood cells, endothelial cells, macrophages and other miscellaneous cells. […] Vimentin which expresses specifically in stromal cells was detected by immuno-fluorescence to measure the cell purity. […] Cell cycle was determined with flow cytometry. […] Cell apotosis was determined by flow cytometry.

[2] = test system: endometrial stromal cells; test: Apoptosis by Annexin V-FITC/PI flow cytometry; assay type: cell-based, human; settings: regardless of dose, 24 h
Experimental: as §1

[3] = test system: hydroxyl radical (.OH) in endometrial stromal cells; test: Determination of hydroxyl radical (.OH) content; assay type: cell-based, human; settings: 18 h
Experimental: Superoxide anion (O2.^−) assay kit was purchased from Nanjing Jiancheng Bioengineering Insitute; Hydroxyl free radical assay kit was purchased from Shanghai Xinyu Biological Technology Co., Ltd., Hydrogen Peroxide Assay Kit was purchased from Beyotime Biotechnology Research Institute. The cells were seeded in 6-well plate at 8×10^5 cells/well, and incubated for 24 h after the cells adhered to the plate. Three different concentrations of PQQ (30 nm, 300 nm and 3 μm) were added to the cultures respectively. The cells were incubated for additional 18 h. At the end of the treatment, the cultured cells were collected. 50 μL samples were added to each cell, followed by addition of 50 μL of antibody working solution. The sample was shaken to achieve a uniform mixture, and reacted at 37° C. for 30 min. The plates were then washed for four to five times. 100 μL of enzyme marker was added to each well. The resulting mixture was allowed to react for 20 min at 37° C. Coloration method: 50 μL of buffer liquid and 50 μL of substrate solution were added to each well in sequence. The mixture solution was gently shaken to achieve a uniform mixing, and coloured for 10 min in the dark at 37° C. […] The optical density at wavelength 560 nm was measured with microplate reader (Read the data in 20 min).

[4] = test system: endometrial stromal cells; test: Scratch test (scratch healing, cell migration); assay type: cell-based, human; settings: for scratch healing: P<0.05
Experimental: Before the cells were plated, horizontal lines were scratched on the back of 24-well plate using a blade with the guide of a ruler. For each well, three evenly distributed lines which horizontally crossed the well were scratched. Two days after transfection, the cell fusion rate reached 90%. The wound were created by scratching on the cell layer with micropipette tip in a direction perpendicular to the lines on the back of the plate with the aid of ruler. During the operation, the micropipette tip should be kept perpendicular to the plate, and not tilt to one side. The cells were washed for three times with PBS to remove the exfoliated cells after being scratched, and 1640 culture medium supplemented with 2% FBS was added to the cells. The cells were cultured in an incubator at 37° C., in an air atmosphere containing 5% CO2. The cells were photographed in the same field of view at each indicated time point.

[5] = cited from earlier work

O=C(O)c1cc(C(=O)O)c2c(n1)C(=O)C(=O)c1cc(C(=O)O)[nH]c1-2 [PQQ, pyrroloquinoline quinone]
cell cycle ([1]; PQQ 3 um): arrest the cell in G0/G1 phase
cell cycle ([1]; PQQ 300 nm): arrest the cell in G0/G1 phase
apoptosis or necrosis compared to the control [2]: No endometrial stromal cells apoptosis or necrosis
relative content of hydroxyl radical (.OH) ([3]; PQQ 300 nM): significantly declined
relative content of hydroxyl radical (.OH) ([3]; PQQ 3 uM): significantly declined
migration of endometrial cells (scratch healing) ([4]; PQQ 30 nM, P>0.05): partially restrain the migration of the endometrial cells
scratch healing ([4]; PQQ 300 nM): significantly inhibit scratch healing
scratch coverage rate lower than in the control group ([4]; PQQ 3 μM, 72 h): 42%
scratch healing ([4]; PQQ 3 μM): significantly inhibit scratch healing
adverse reactions ([5]; mice fed 100 mg/kg body weight/day for 14 consecutive days): did not show any adverse reactions
half lethal dose ([5]; mice): 1000-2000 mg/kg body weight/day
